# Active and inactive are the calls of the source.
# Experiments:
# Protein RecA = target: T1, Protein RecA (Mycobacterium tuberculosis, UniProt P9WHJ3); test: Fluorescence Cell-Free Homogeneous Dose Retest to Identify Inhibitors of RecA-Intein Splicing Activity. [Related pubchem assays (depositor defined):AID2097, AID2223, AID489010, AID492950]; assay type: functional
# T1 sequence (P9WHJ3 whole entry): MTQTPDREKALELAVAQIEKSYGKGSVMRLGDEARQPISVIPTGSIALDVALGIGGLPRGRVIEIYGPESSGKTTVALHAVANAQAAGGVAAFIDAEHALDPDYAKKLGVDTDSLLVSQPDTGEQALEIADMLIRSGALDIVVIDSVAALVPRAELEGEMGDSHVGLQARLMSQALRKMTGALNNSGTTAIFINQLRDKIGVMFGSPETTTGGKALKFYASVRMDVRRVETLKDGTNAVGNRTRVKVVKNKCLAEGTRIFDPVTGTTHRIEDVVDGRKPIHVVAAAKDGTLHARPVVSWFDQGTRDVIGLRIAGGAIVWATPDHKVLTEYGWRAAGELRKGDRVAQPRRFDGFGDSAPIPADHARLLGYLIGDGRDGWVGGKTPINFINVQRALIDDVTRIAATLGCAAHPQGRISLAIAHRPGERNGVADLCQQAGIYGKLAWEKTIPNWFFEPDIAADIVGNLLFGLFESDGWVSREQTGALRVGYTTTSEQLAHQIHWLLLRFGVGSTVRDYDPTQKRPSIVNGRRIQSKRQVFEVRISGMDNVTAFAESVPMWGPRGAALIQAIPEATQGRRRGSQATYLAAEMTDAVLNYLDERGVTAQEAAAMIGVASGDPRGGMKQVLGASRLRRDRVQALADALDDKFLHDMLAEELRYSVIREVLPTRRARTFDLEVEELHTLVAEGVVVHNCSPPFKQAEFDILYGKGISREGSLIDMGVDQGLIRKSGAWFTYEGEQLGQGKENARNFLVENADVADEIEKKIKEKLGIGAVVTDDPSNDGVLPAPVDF
# Leucine aminopeptidase = target: T2, Leucine aminopeptidase (Plasmodium falciparum 3D7, UniProt Q8IL11); test: P. falciparum M17LAP inhibitors, primary screen, biochemical, fluorogenic H-Leu-NHMec substrate, 1536-well (AID 1619); assay type: functional
# T2 sequence (Q8IL11 whole entry): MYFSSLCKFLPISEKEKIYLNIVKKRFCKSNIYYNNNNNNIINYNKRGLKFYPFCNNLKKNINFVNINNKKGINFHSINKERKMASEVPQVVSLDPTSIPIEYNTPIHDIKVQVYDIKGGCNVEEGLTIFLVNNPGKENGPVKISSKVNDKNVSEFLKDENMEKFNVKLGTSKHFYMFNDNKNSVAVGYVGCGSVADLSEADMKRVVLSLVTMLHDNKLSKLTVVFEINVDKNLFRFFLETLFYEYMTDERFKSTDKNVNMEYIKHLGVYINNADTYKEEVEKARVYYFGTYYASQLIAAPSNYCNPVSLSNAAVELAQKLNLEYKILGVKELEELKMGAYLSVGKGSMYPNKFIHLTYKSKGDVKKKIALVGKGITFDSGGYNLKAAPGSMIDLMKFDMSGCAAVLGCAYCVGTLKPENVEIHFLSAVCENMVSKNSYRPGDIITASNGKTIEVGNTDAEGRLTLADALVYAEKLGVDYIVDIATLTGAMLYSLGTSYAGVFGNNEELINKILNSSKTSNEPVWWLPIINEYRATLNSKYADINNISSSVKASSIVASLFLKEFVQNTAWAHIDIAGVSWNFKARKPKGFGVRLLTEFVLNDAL
# [1] = target: T3, Replicative DNA helicase DnaB (Mycobacterium tuberculosis, UniProt P9WMR3); test: DnaB intein splicing inhibitors, dose response, biochemical, cell-free fluorescence (AID 449749); assay type: functional
# T3 sequence (P9WMR3 whole entry): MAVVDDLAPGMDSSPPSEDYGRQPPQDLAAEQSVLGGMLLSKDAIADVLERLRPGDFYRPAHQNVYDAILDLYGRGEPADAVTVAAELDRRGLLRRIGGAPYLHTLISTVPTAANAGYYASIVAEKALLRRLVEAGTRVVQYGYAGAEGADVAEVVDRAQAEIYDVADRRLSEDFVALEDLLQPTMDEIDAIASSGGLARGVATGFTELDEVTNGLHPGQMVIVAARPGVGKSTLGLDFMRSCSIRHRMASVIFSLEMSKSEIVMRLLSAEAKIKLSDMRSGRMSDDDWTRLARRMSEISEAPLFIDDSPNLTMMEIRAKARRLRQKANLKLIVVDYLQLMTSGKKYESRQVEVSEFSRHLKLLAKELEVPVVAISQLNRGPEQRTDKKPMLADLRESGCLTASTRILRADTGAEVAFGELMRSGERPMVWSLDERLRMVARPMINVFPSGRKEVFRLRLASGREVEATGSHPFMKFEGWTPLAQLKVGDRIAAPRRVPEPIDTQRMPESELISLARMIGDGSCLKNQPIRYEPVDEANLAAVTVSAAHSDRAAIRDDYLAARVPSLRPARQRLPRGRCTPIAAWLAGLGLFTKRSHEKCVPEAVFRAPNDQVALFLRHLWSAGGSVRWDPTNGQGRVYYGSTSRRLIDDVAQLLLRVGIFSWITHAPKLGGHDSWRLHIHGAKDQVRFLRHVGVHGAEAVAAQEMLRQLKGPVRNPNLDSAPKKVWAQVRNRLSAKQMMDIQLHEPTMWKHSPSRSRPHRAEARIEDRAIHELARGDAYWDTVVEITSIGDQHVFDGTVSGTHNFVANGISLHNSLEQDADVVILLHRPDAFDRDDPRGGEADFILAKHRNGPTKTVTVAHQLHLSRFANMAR
# [2] = target: Glyceraldehyde-3-phosphate dehydrogenase (Homo sapiens, UniProt P04406)
# [3] = THP-1 cell cytotoxicity, dose response, cytotoxicity control for Vif-APOBEC3G degradation inhibitor project, THP-1 cells (AID 1117359); assay type: functional; settings: Human immunodeficiency virus 1, THP-1
# [4] = target: T4, Zinc finger protein mex-5 (Caenorhabditis elegans, UniProt Q9XUB2); test: MEX-5/TCR-2 RNA interaction inhibitors, dose response, biochemical, C. elegans, fluorescence polarization (AID 1960)
# T4 sequence (Q9XUB2 whole entry): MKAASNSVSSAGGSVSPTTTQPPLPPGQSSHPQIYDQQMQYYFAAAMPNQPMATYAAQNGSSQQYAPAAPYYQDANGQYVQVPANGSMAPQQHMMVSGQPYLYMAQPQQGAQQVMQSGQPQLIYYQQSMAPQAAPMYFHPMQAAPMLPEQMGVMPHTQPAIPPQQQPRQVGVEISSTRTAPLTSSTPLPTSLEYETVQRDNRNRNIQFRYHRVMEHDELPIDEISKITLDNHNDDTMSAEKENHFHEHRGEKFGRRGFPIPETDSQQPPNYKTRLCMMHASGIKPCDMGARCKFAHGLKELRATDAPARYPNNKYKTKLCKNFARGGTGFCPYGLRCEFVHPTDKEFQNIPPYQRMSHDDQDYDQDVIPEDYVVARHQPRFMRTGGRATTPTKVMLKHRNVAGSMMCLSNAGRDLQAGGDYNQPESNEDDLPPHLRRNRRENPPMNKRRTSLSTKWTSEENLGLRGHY
# cells = assay type: functional, cell-based
# [5] = Luminescence Cell-Based Dose Confirmation HTS to Identify Inhibitors of Platelet Dense Granule Release. [Related pubchem assays: 1663 (Primary HTS), 1678 (Summary of Project)]; assay type: functional
# [6] = MC4R antagonists, dose response, counter-screen for LGR2 antagonist project, cell-based, plate reader, cherry pick (AID 743444); assay type: functional;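 note: transfected HEK 293 cells stimulated with alpha-MSH peptide; potency of inhibitors of the alpha-MSH evoked signal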
# HEK293 = test: inhibitors of LMP1-driven NF-kB reporter, dose response, cell-based, HEK293, luciferase, cherry-pick (AID 588343); assay type: functional; settings: Homo sapiens
# [7] = LGR2 antagonists, dose response, cell-based, HEK293, CRE-luciferase reporter, cherry pick, set 2 (AID 743343); assay type: functional;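 note: transfected cells were stimulated with diluted bursicon conditioned medium after compound addition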
# [8] = target: Luciferin 4-monooxygenase (Photinus pyralis, UniProt P08659); test: firefly luciferase enzyme inhibitors, dose response, biochemical, luminescence (AID 1891)
# [9] = Luminescence Cell-Based Dose Response HTS to Identify Inhibitors of 5'UTR Stem-Loop Driven Prion Protein mRNA Translation in H4 Neuroglioblastoma Cells. [Related pubchem assays: 1827 (Project Summary), 1813 (Primary HTS)]; assay type: functional
# [10] = inhibitors of SNCA 5'UTR-driven reporter translation, confirmation, H4 neuroglioma cells, luminescence (AID 1988); assay type: functional, cell-based
# [11] = inhibitors of firefly luciferase expression or activity, dose response, H4 neuroglioma cells, luminescence (AID 1990); assay type: functional, cell-based
# [12] = HEK293 cell cytotoxicity, dose response, cytotoxicity control, plate reader, cherry-picked samples (AID 743446); assay type: functional, cell-based
# [13] = target: T5, Nuclear receptor subfamily 0 group B member 1 (Homo sapiens, UniProt P51843); assay type: functional, cell-based;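 note: HEK293T cells transfected with SF-1 and DAX-1 plus StAR promoter luciferase reporter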
# T5 sequence (P51843 whole entry): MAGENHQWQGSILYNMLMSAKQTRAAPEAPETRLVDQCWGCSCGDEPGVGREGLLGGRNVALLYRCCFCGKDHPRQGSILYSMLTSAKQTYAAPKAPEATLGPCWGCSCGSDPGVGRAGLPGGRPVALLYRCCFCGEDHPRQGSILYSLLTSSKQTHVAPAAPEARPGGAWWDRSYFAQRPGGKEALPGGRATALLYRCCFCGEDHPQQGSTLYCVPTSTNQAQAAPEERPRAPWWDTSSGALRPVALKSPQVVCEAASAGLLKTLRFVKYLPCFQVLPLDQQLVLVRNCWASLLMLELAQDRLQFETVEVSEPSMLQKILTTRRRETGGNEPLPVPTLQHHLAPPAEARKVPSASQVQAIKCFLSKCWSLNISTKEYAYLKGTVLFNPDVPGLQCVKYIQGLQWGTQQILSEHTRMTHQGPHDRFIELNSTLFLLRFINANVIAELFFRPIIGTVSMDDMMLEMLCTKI
# [14] = target: T6, RNA-binding protein pos-1 (Caenorhabditis elegans, UniProt G5EF15); test: inhibitors of POS-1/mex-3 RNA binding, dose response, biochemical, fluorescence polarization (AID 1964);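 note: purified POS-1 fused to maltose binding protein made in E. coli; potency of compounds blocking POS-1 binding to fluorescent RNA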
# T6 sequence (G5EF15 whole entry): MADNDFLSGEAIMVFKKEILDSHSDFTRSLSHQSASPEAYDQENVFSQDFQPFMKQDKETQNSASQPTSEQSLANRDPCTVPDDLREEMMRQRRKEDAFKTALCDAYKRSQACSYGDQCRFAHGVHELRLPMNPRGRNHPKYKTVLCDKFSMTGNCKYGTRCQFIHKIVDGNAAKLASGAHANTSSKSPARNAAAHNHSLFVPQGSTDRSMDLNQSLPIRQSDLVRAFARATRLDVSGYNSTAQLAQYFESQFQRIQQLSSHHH
# [15] = A549 cell cytotoxicity, dose response, cytotoxicity control, plate reader, cherry-pick, antagonist series (AID 743412); assay type: functional, cell-based
# [16] = HepG2 cell cytotoxicity, dose response, cytotoxicity control, plate reader, cherry-pick, antagonist series (AID 743416); assay type: functional, cell-based
# [17] = target: T7, Heat shock factor protein 1 (Mus musculus, UniProt P38532); test: HSF1 potentiators in luciferase reporter cells, confirmation, cell-based, NIH3T3, luminescence, dose retest (AID 435004); assay type: functional;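 note: stress induced by proteasome inhibitor MG132 added 30 min after compound; luciferase reporter driven by HSF1 response element in NIH3T3 cells; actives raise luminescence as potentiators of the MG132 stress response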
# T7 sequence (P38532 whole entry): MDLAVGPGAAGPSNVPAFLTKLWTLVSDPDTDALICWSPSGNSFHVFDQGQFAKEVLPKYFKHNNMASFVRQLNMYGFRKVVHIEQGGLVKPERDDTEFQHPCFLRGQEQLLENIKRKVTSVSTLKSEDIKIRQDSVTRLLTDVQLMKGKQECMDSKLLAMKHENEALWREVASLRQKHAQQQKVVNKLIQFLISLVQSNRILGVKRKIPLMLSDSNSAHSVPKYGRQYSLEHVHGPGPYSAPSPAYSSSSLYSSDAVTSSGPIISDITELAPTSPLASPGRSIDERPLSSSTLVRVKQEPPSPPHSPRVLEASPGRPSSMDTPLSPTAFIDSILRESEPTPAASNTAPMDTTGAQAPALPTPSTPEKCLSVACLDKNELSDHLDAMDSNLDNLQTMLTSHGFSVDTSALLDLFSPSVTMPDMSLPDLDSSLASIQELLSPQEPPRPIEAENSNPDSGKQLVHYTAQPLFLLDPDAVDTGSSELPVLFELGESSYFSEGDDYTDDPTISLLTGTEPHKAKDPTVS
# Chain of Luciferin 4-monooxygenase (P08659 whole entry): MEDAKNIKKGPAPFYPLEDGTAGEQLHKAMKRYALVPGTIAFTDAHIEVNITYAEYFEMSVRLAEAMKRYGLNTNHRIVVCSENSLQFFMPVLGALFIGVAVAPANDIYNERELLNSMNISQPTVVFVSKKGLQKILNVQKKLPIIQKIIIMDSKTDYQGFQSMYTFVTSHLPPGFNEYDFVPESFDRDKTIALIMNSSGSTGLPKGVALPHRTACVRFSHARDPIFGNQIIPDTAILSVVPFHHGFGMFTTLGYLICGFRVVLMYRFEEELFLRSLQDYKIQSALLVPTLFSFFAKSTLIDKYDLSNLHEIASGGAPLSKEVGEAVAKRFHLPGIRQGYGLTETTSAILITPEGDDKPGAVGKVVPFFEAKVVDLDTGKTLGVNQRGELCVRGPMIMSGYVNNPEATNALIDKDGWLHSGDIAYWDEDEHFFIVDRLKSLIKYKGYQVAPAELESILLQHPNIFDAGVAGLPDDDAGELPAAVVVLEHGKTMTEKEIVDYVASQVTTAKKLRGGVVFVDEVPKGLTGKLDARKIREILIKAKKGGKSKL
# Chain of Glyceraldehyde-3-phosphate dehydrogenase (P04406 whole entry): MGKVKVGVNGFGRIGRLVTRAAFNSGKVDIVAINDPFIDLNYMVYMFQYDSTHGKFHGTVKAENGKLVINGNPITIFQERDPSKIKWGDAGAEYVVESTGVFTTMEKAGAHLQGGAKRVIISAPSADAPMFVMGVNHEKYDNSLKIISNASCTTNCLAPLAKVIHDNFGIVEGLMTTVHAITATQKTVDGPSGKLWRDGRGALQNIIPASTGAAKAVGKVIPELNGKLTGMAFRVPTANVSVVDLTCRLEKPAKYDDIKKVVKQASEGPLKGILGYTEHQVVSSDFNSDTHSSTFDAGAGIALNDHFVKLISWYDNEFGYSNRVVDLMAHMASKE
compound,measurement,setting,value
CC(=O)N1CCC2(CC1)C(C#N)=C(N)Oc1[nH]nc(CSc3ccc(C)cc3)c12,EC50,Protein RecA,2.9 µM (active)
same,IC50,Leucine aminopeptidase,21.1 µM (active)
same,AC50,[1],4.72 µM (active)
Cc1oc(-c2cc(Cl)cc(Cl)c2)cc1C(=O)Nc1ccc(S(N)(=O)=O)cc1,IC50,[2],> 100 µM (not active)
CC1CCc2[nH]c3ccc(C(=O)N(C)CC(=O)Nc4ccc(F)cc4)cc3c2C1 (configuration not stated),CC50,[3],> 40 µM (active)
Cc1nc2sc(-c3ccccc3)cc2c(=O)n1N,EC50,[4],> 300 µM (not active)
same,IC50,cells,> 67.6 µM (inactive)
same,EC50,[5],1.73 µM (active)
same,AC50,[6],2.66 µM (active)
same,AC50,HEK293,1.04 µM (active)
same,AC50,[7],2.31 µM (active)
same,EC50,[8],1.01 µM (active)
same,EC50,[9],6.26 µM (active)
same,EC50,[10],3.44 µM (active)
same,EC50,[11],2.82 µM (active)
same,AC50,[12],24.9 µM (active)
same,IC50,[13],> 67.6 µM (inactive)
same,EC50,[14],> 300 µM (not active)
same,AC50,[15],24.2 µM (active)
same,AC50,[16],50 µM (active)
O=C(O)C1CCCCC1C(=O)Nc1ccc2c(c1)CCC2 (configuration not stated),EC50,[17],> 260 µM (inactive)
same,IC50,Leucine aminopeptidase,9.16 µM (active)

# Source: ChEMBL document CHEMBL1201862, “PubChem BioAssay data set” (2004)
